According to PMC4222822, “Discovery and Characterization of a Potent and Selective Inhibitor of Aedes aegypti Inward Rectifier Potassium Channels” (PLoS ONE, 2014):

How the values were obtained:
[1] = target: T1, Kir2.2 (Homo sapiens, UniProt Q14500); assay: Tl+ flux selectivity assay, Kir2.2; type: cell-based; conditions: n = 2 independent experiments in triplicate, read-out: Inhibition of Tl+ flux (IC50)
T1 construct: expressed in transfected cells
T1 sequence (Q14500 1-433): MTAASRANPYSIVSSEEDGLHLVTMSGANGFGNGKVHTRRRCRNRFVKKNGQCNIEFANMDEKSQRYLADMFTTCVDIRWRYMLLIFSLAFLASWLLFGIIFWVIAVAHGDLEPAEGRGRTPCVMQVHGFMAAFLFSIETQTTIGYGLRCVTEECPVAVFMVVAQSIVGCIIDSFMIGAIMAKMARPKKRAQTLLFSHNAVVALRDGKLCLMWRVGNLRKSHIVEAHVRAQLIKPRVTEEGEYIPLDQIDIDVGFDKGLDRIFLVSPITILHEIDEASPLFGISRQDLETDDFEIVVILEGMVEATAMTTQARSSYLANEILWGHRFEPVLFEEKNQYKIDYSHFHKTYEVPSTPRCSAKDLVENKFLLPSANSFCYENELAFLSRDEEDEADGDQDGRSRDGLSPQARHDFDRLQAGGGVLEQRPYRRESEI
Method: [Worded in the source for another target; used here, by the source, with some conditions changed.] (§1) Tl^+ flux assays were performed essentially as described previously, [18], [19]. Briefly, stably transfected T-Rex-HEK-293 cells expressing AeKir1 channels were cultured overnight in 384-well plates (20,000 cells/20 µL/well black-walled, clear-bottomed BD PureCoat amine-coated plates (BD, Bedford, MA) with a plating media containing DMEM, 10% dialyzed FBS and 1 µg/mL tetracycline. The next day, the cell culture medium was replaced with a dye-loading solution containing assay buffer (Hanks Balanced Salt Solution with 20 mM HEPES, pH 7.3), 0.01% (w/v) Pluronic F-127 (Life Technologies, Carlsbad, CA), and 1.2 µM of the thallium-sensitive dye Thallos-AM (TEFlabs, Austin, TX). Following 1 hr incubation at room temperature, the dye-loading solution was washed from the plates and replaced with 20 µL/well of assay buffer. […] Tl^+ flux data were analyzed as previously described, [21], [22] using a combination of Excel (Microsoft Corp, Redmond, WA) with XLfit add-in (IDBS, Guildford, Surrey, UK) and OriginPro (OriginLab, Northampton, MA) software. […] The slope of the fluorescence increase beginning 5 s after Tl^+ addition and ending 15 s after Tl^+ addition was calculated.

[2] = target: T2, Kir2.1 (Homo sapiens, UniProt P63252); assay: Tl+ flux selectivity assay, Kir2.1; type: cell-based; conditions: n = 2 independent experiments in triplicate, read-out: Inhibition of Tl+ flux (IC50)
T2 construct: expressed in transfected cells
T2 sequence (P63252 1-427): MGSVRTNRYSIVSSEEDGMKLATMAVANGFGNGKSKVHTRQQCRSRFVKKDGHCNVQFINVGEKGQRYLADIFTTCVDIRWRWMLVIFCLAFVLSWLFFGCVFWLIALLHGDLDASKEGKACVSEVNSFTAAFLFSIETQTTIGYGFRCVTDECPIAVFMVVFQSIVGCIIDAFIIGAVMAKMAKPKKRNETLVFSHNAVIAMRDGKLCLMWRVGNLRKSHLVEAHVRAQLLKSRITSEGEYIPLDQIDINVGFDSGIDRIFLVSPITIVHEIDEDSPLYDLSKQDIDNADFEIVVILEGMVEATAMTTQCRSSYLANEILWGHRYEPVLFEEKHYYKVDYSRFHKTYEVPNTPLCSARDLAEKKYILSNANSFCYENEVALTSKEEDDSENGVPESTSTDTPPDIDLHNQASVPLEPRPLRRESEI
Method: [Worded in the source for another target; used here, by the source, with some conditions changed.] as §1

[3] = tested on: mosquitoes; assay: Toxicity when applied to the cuticle (topical); type: in vivo; conditions: Piermarini, unpublished observations

`CCC(=O)N1c2ccc(S(=O)(=O)Nc3cccc(OC)c3)cc2CC1C` (stereo not drawn) [VU625, N-(3-methoxyphenyl)-2-methyl-1-propionylindoline-5-sulfonamide] was tested, and the IC50 [1] was > 30 µM, the IC50 [2] was > 30 µM and the “toxicity when applied to the cuticle” value [3] was “lack of topical activity”.
